Results published in patent publication US9115139B2, “Pyrazinooxazepine derivatives” (TAKEDA PHARMACEUTICAL COMPANY LIMITED, priority 2009, dated 2015).

molecular target: serotonin 5-HT2C receptor (VSV type isoform, stably expressing CHO cell) (Homo sapiens, UniProt P28335, I156V/I160V/N158S); assay type: cell-based
Sequence (P28335 33-458 I156V/N158S/I160V limits assumed): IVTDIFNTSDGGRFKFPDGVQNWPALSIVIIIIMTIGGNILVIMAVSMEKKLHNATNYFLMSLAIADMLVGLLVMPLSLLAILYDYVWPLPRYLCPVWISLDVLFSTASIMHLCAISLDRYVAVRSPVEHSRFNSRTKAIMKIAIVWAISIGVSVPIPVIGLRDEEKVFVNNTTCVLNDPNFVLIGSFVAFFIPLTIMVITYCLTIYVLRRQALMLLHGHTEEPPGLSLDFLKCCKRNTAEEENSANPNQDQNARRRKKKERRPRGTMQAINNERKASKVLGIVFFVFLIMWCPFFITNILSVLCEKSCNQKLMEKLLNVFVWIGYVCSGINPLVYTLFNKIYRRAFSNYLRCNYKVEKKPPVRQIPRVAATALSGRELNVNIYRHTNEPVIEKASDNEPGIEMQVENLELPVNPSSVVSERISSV

Compound | ratio (%) relative to maximum response by 5-HT (1 μM) [%]
CC(C)Oc1cnc2c(n1)OCCNC2.Cl [Example 2, 3-(1-methylethoxy)-6,7,8,9-tetrahydropyrazino[2,3-f][1,4]oxazepine hydrochloride] | 93
C[C@@H]1COCCN1c1cnc2c(n1)OCCNC2.Cl [Example 5, 3-[(3R)-3-methylmorpholin-4-yl]-6,7,8,9-tetrahydropyrazino[2,3-f][1,4]oxazepine hydrochloride] | 95
CC(C)N(C)c1cnc2c(n1)OCCNC2.Cl [Example 8, N-methyl-N-(1-methylethyl)-6,7,8,9-tetrahydropyrazino[2,3-f][1,4]oxazepin-3-amine hydrochloride] | 95
Cl.c1nc2c(nc1C1CC1)OCCNC2 [Example 10, 3-cyclopropyl-6,7,8,9-tetrahydropyrazino[2,3-f][1,4]oxazepine hydrochloride] | 89
